Measured values published in ChEMBL document CHEMBL1201862, “PubChem BioAssay data set” (2004).
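Five compound concentrations were applied to cells in 96-well plates for 48 hours; endpoints were derived by simple linear interpolation of the resulting dose-response curve. Here, GI50 denotes the concentration required for 50% inhibition of growth.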 Activity calls are given as the source filed them. No stated cut-off is given here; in the data, active = GI50 up to about 1.1 µM and inactive = higher.

Legend:
Assay in all cases: inhibition of tumour cell growth, NCI panel, 48 h
[1] = test system: MOLT-4
[2] = test system: OVCAR-8
[3] = test system: RXF 393
[4] = test system: U-251
[5] = test system: COLO 205
[6] = test system: HOP-92
[7] = test system: PC-3
[8] = test system: LOX IMVI
[9] = test system: M14
[10] = test system: NCI-H522
[11] = test system: UACC-62
[12] = test system: Malme-3M
[13] = test system: SW-620
[14] = test system: SK-MEL-5
[15] = test system: DU-145
[16] = test system: SK-MEL-2
[17] = test system: SF-268
[18] = test system: OVCAR-4
[19] = test system: ACHN
[20] = test system: CAKI-1

Structure (SMILES)	GI50 [1]	GI50 [2]	GI50 [3]	GI50 [4]	GI50 [5]	GI50 [6]	GI50 [7]	GI50 [8]	GI50 [9]	GI50 [10]	GI50 [11]	GI50 [12]	GI50 [13]	GI50 [14]	GI50 [15]	GI50 [16]	GI50 [17]	GI50 [18]	GI50 [19]	GI50 [20]
CN1CCc2cc(N)cc3c2C1Cc1ccc(O)c(O)c1-3 (centres undefined)	3.92 µM (inactive)	30.7 µM (inactive)	55.7 µM (inactive)	39.5 µM (inactive)	37.9 µM (inactive)	51.2 µM (inactive)	38.2 µM (inactive)	18.6 µM (inactive)	34 µM (inactive)	27.2 µM (inactive)	23.7 µM (inactive)	37.8 µM (inactive)	31.8 µM (inactive)	20.4 µM (inactive)	56.6 µM (inactive)	40.9 µM (inactive)	6.43 µM (inactive)	31.6 µM (inactive)	25.8 µM (inactive)	37.2 µM (inactive)
COc1cc(/C=c2/c3ccccc3n3c2cc(-c2ccccc2)[n+]3C)cc(OC)c1OC	2.97 µM (inactive)	3.33 µM (inactive)	2.74 µM (inactive)	3.7 µM (inactive)	1.69 µM (inactive)	3.48 µM (inactive)	3.74 µM (inactive)	3.69 µM (inactive)	4.95 µM (inactive)	2.93 µM (inactive)	3.69 µM (inactive)	2.19 µM (inactive)	3.82 µM (inactive)	2.69 µM (inactive)	5.47 µM (inactive)	2.58 µM (inactive)	6.73 µM (inactive)	3.46 µM (inactive)	4.07 µM (inactive)	3.92 µM (inactive)
Fc1cc(-c2cc(-c3ccc4c(c3)OCO4)n[nH]2)c(Cl)cc1Cl	> 32.2 µM (inactive)	1.85 µM (inactive)	1.89 µM (inactive)	1.91 µM (inactive)	3.42 µM (inactive)	2.26 µM (inactive)	3.62 µM (inactive)	2.95 µM (inactive)	4.75 µM (inactive)	4.1 µM (inactive)	1.46 µM (inactive)	4.94 µM (inactive)	4.6 µM (inactive)	6.38 µM (inactive)	3.34 µM (inactive)	15.8 µM (inactive)	3.24 µM (inactive)	1.91 µM (inactive)	1.95 µM (inactive)	3.18 µM (inactive)
Cc1nn(C(=O)c2ccc(Cl)cc2)c2c1C(c1ccccc1[N+](=O)[O-])SC(=N)N2 (centres undefined)	> 10 µM (inactive)	> 10 µM (inactive)	0.569 µM (active)	> 10 µM (inactive)	> 10 µM (inactive)	> 10 µM (inactive)	> 10 µM (inactive)	> 10 µM (inactive)	> 10 µM (inactive)	> 10 µM (inactive)	> 10 µM (inactive)	> 10 µM (inactive)	> 10 µM (inactive)	> 10 µM (inactive)	> 10 µM (inactive)	> 10 µM (inactive)	> 10 µM (inactive)	> 10 µM (inactive)	> 10 µM (inactive)	> 10 µM (inactive)
Cc1cccc(NC(=S)N/N=C(/c2ccccc2)c2ccccn2)c1	< 0.0149 µM (active)	0.038 µM (active)	0.667 µM (active)	0.0299 µM (active)	< 0.0163 µM (active)	0.484 µM (active)	< 0.0143 µM (active)	0.0224 µM (active)	< 0.01 µM (active)	1.09 µM (active)	0.267 µM (active)	0.174 µM (active)	< 0.019 µM (active)	0.108 µM (active)	0.942 µM (active)	2.49 µM (inactive)	0.0863 µM (active)	0.368 µM (active)	0.044 µM (active)	0.249 µM (active)
C1CN1c1nc(N2CC2)nc(N2CC2)n1	0.495 µM (active)	7.55 µM (inactive)	6.78 µM (inactive)	3.92 µM (inactive)	13.6 µM (inactive)	10 µM (inactive)	12.3 µM (inactive)	3.08 µM (inactive)	4.84 µM (inactive)	5.21 µM (inactive)	1.84 µM (inactive)	11.7 µM (inactive)	11 µM (inactive)	6.19 µM (inactive)	2.78 µM (inactive)	17.7 µM (inactive)	2.99 µM (inactive)	16.2 µM (inactive)	0.944 µM (active)	2.19 µM (inactive)
CCCCCCCCCCCC(=O)OC[C@@H](C[As](=O)(O)O)OC(=O)CCCCCCCCCCC	5.51 µM (inactive)	9.98 µM (inactive)	2.43 µM (inactive)	2.14 µM (inactive)	17 µM (inactive)	1.71 µM (inactive)	2.43 µM (inactive)	4.24 µM (inactive)	2.49 µM (inactive)	2.47 µM (inactive)	2.52 µM (inactive)	3.41 µM (inactive)	15 µM (inactive)	1.82 µM (inactive)	18.1 µM (inactive)	2.69 µM (inactive)	5.15 µM (inactive)	14.2 µM (inactive)	3.01 µM (inactive)	11.1 µM (inactive)
O=[N+]([O-])/C(Cl)=C(\NCCO)C(Cl)=C(Cl)Cl	20.7 µM (inactive)	52.8 µM (inactive)	56.1 µM (inactive)	> 93.3 µM (inactive)	27.5 µM (inactive)	> 84.5 µM (inactive)	87.3 µM (inactive)	70 µM (inactive)	38.8 µM (inactive)	21.7 µM (inactive)	45.2 µM (inactive)	32.5 µM (inactive)	41.3 µM (inactive)	> 96.4 µM (inactive)	> 100 µM (inactive)	> 100 µM (inactive)	87.9 µM (inactive)	59.4 µM (inactive)	89.5 µM (inactive)	> 86.7 µM (inactive)
COCOc1cc(OCOC)cc(C(=O)Oc2ccccc2)c1	> 100 µM (inactive)	> 100 µM (inactive)	> 100 µM (inactive)	> 100 µM (inactive)	> 100 µM (inactive)	> 100 µM (inactive)	93.8 µM (inactive)	> 100 µM (inactive)	> 100 µM (inactive)	48.3 µM (inactive)	> 100 µM (inactive)	> 100 µM (inactive)	> 100 µM (inactive)	> 100 µM (inactive)	> 100 µM (inactive)	> 100 µM (inactive)	> 100 µM (inactive)	> 100 µM (inactive)	> 100 µM (inactive)	> 100 µM (inactive)
CCCCCCCCC/C=C1\CC(CO)(COC(=O)C2CCCCC2)OC1=O (centres undefined)	21.7 µM (inactive)	15.8 µM (inactive)	20.2 µM (inactive)	19.7 µM (inactive)	13.6 µM (inactive)	8.17 µM (inactive)	17 µM (inactive)	11.8 µM (inactive)	18.6 µM (inactive)	18.3 µM (inactive)	21.5 µM (inactive)	15.2 µM (inactive)	18.4 µM (inactive)	11.8 µM (inactive)	7.6 µM (inactive)	18.2 µM (inactive)	20.4 µM (inactive)	22.8 µM (inactive)	20 µM (inactive)	22.9 µM (inactive)
C=C1c2nc3ccccc3n2C=C(c2ccc(C)cc2)N1c1ccc(OC)cc1	15.2 µM (inactive)	75.5 µM (inactive)	> 56.9 µM (inactive)	97.7 µM (inactive)	31.9 µM (inactive)	> 48.2 µM (inactive)	16.4 µM (inactive)	50.1 µM (inactive)	58.2 µM (inactive)	7.52 µM (inactive)	51.3 µM (inactive)	21.8 µM (inactive)	13.6 µM (inactive)	13.7 µM (inactive)	> 100 µM (inactive)	60.7 µM (inactive)	> 100 µM (inactive)	> 94.2 µM (inactive)	61.5 µM (inactive)	36.1 µM (inactive)
CC(=O)Nc1nc(C)c(S(=O)(=O)NC(=O)NC2NC(=O)NC2=O)s1 (centres undefined)	> 100 µM (inactive)	> 100 µM (inactive)	> 100 µM (inactive)	> 100 µM (inactive)	> 100 µM (inactive)	> 100 µM (inactive)	> 100 µM (inactive)	> 100 µM (inactive)	> 100 µM (inactive)	> 100 µM (inactive)	> 100 µM (inactive)	> 100 µM (inactive)	> 100 µM (inactive)	> 100 µM (inactive)	> 100 µM (inactive)	> 100 µM (inactive)	> 100 µM (inactive)	> 100 µM (inactive)	> 100 µM (inactive)	> 100 µM (inactive)
Nc1ccc2nc3n(c(=O)c2c1)CCCCC3	> 100 µM (inactive)	> 100 µM (inactive)	> 100 µM (inactive)	> 100 µM (inactive)	> 100 µM (inactive)	> 100 µM (inactive)	> 100 µM (inactive)	> 100 µM (inactive)	> 100 µM (inactive)	> 100 µM (inactive)	> 100 µM (inactive)	> 100 µM (inactive)	> 100 µM (inactive)	> 100 µM (inactive)	> 100 µM (inactive)	> 100 µM (inactive)	> 100 µM (inactive)	> 100 µM (inactive)	> 100 µM (inactive)	> 100 µM (inactive)
COc1ccc2nc3cc([N+](=O)[O-])ccc3c(Nc3ccc(S(=O)(=O)NC(C)=O)cc3)c2c1	29.4 µM (inactive)	–	> 100 µM (inactive)	44.8 µM (inactive)	51.3 µM (inactive)	> 100 µM (inactive)	45.5 µM (inactive)	93.3 µM (inactive)	> 100 µM (inactive)	33.2 µM (inactive)	73.3 µM (inactive)	> 100 µM (inactive)	46.8 µM (inactive)	16.6 µM (inactive)	90.6 µM (inactive)	> 100 µM (inactive)	> 100 µM (inactive)	> 100 µM (inactive)	88.1 µM (inactive)	> 100 µM (inactive)
